In ChEMBL document CHEMBL4387721, “Proteolysis targeting chimeras (PROTACs) in 'beyond rule-of-five' chemical space: Recent progress and future challenges” (Bioorg Med Chem Lett, 2019):

How the values were obtained:
[1] = biological target: T1, Protein cereblon/B-cell lymphoma 6 protein (Homo sapiens, UniProt Q96SW2+P41182); test: Protac activity at CRBN/BCL6 in human SUDHL4 cells assessed as induction of BCL6 protein degradation after 4 hrs by Western blot analysis; type: cell-based
[2] = biological target: T1, Protein cereblon/B-cell lymphoma 6 protein; test: Protac activity at CRBN/BCL6 in human SUDHL4 cells assessed as induction of BCL6 protein degradation at 1 uM after 4 hrs by Western blot analysis relative to control; type: cell-based
[3] = biological target: T2, Estrogen receptor/E3 ubiquitin-protein ligase XIAP (Homo sapiens, UniProt P03372+P98170); test: Protac activity at ERalpha/XIAP in human MCF7 cells assessed as induction of ERalpha degradation at 100 nM by Western blot analysis relative to control; type: cell-based
[4] = biological target: T2, Estrogen receptor/E3 ubiquitin-protein ligase XIAP; test: Protac activity at ERalpha/XIAP in human MCF7 cells assessed as induction of ERalpha degradation after 4 hrs by Western blot analysis; type: cell-based
[5] = biological target: Protein cereblon/Tyrosine-protein kinase BTK (Homo sapiens, UniProt Q06187+Q96SW2); test: Protac activity at CRBN/BTK in human NAMALWA cells assessed as induction of BTK protein degradation at 100 nM incubated for 24 hrs by immunoblotting method relative to control; type: cell-based
Sequence of Protein cereblon/Tyrosine-protein kinase BTK (Q06187 2-659 limits assumed): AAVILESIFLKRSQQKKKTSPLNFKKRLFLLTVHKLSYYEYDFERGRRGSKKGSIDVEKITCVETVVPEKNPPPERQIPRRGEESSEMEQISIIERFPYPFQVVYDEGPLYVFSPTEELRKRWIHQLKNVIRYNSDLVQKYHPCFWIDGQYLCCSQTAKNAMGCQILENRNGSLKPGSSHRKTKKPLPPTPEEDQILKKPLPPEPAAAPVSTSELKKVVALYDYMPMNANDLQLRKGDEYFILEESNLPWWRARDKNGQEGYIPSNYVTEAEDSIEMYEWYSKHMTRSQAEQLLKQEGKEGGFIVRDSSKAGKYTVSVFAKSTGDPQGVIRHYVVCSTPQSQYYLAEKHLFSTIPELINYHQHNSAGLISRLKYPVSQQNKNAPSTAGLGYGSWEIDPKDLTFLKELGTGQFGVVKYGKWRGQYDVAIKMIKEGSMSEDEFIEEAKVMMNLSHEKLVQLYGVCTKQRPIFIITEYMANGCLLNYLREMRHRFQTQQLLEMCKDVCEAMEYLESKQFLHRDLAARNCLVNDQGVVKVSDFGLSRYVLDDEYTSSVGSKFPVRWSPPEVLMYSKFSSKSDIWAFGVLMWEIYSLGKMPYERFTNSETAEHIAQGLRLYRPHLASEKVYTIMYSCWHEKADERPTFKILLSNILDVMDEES
Sequence of Protein cereblon/Tyrosine-protein kinase BTK (Q96SW2 whole entry partner, canonical isoform): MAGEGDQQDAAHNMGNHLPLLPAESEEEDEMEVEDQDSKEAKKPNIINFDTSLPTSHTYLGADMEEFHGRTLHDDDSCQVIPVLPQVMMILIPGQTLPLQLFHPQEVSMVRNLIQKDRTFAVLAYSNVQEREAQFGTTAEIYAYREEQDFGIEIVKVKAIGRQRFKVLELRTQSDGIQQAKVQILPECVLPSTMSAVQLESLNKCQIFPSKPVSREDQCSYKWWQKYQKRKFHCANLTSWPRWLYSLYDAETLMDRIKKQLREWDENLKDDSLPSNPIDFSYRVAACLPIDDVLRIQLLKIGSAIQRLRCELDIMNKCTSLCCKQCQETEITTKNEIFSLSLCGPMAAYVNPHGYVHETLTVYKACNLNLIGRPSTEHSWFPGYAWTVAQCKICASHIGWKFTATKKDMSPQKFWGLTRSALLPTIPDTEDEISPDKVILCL

[6] = biological target: T3, von Hippel-Lindau disease tumor suppressor/Bromodomain-containing protein 4 (Homo sapiens, UniProt O60885+P40337); test: Protac activity at VHL/BRD4 short isoform in human HeLa cells assessed as induction of BRD4 short isoform degradation incubated for 24 hrs by Western blot analysis relative to control; type: cell-based
T3 sequence (P40337 whole entry, looked up, other chains not shown, canonical isoform): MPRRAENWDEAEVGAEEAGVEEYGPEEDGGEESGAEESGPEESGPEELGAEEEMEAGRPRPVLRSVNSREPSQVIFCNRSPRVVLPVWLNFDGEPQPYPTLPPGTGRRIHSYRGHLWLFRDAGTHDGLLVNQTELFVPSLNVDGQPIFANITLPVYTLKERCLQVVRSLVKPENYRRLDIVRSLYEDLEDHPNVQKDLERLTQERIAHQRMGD

[7] = biological target: T3, von Hippel-Lindau disease tumor suppressor/Bromodomain-containing protein 4; test: Protac activity at VHL/BRD4 short isoform in human HeLa cells assessed as induction of BRD4 short isoform degradation incubated for 24 hrs by Western blot analysis; type: cell-based
[8] = Protac activity at CRBN/FKBP12 F36V mutant (unknown origin) expressed in human 293FT cells assessed as induction of FKBP12 F36V mutant protein degradation incubated for 4 hrs by Western blot analysis; type: cell-based
Homo sapiens = species: Homo sapiens; test: Protac activity at CRBN/FKBP12 F36V mutant (unknown origin) expressed in human 293FT cells assessed as induction of FKBP12 F36V mutant protein degradation incubated for 4 hrs by Western blot analysis relative to control; type: cell-based
[9] = biological target: Protein cereblon/Histone acetyltransferase KAT2A (Homo sapiens) (UniProt Q92830+Q96SW2); test: Protac activity at CRBN/GCN5 in human THP1 cells assessed as induction of GCN5 protein degradation at 1 nM incubated for 18 hrs by Western blot analysis relative to control; type: cell-based
[10] = biological target: Protein cereblon/Histone acetyltransferase KAT2B (Homo sapiens) (UniProt Q92831+Q96SW2); test: Protac activity at CRBN/PCAF in human THP1 cells assessed as induction of PCAF protein degradation incubated for 18 hrs by Western blot analysis relative to control; type: cell-based
Sequence of Protein cereblon/Histone acetyltransferase KAT2B (Homo sapiens) (Q92831 whole entry, looked up): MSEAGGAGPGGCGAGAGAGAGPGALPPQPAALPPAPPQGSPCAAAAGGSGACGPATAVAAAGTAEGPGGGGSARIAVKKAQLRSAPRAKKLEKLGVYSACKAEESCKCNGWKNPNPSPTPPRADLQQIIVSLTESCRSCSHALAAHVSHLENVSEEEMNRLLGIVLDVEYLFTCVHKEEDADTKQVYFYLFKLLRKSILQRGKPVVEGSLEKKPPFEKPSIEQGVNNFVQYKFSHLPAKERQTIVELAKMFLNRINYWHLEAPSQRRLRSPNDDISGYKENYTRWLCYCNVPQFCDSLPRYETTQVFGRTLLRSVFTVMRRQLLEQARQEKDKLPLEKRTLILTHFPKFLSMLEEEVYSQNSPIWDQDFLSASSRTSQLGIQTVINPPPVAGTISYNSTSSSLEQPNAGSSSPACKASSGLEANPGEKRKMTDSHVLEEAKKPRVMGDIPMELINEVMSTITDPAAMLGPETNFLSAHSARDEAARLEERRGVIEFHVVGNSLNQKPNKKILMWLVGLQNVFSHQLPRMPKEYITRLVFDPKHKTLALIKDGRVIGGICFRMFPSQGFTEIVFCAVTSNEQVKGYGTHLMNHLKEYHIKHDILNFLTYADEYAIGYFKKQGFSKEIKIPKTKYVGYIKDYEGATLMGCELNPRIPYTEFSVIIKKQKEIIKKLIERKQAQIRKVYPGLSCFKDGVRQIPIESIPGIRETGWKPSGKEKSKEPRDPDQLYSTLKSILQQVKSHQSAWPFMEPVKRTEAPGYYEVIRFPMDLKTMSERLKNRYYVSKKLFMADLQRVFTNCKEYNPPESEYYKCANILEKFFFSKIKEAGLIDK
Sequence of Protein cereblon/Histone acetyltransferase KAT2B (Homo sapiens) (Q96SW2 whole entry, looked up): as the sequence (Q96SW2 whole entry partner, canonical isoform) above

[11] = biological target: Protein cereblon/Bromodomain-containing protein 4 (Homo sapiens) (UniProt O60885+Q96SW2); test: Protac activity at Cereblon/BRD4 in human MV411 cells assessed as induction of BRD4 protein degradation at 1 uM incubated for 18 hrs by immunoblot analysis relative to control; type: cell-based
Sequence of Protein cereblon/Bromodomain-containing protein 4 (Homo sapiens) (Q96SW2 whole entry, looked up, other chains not shown): as the sequence (Q96SW2 whole entry partner, canonical isoform) above

[12] = biological target: T4, Protein cereblon/Cyclin-dependent kinase 9 (Homo sapiens, UniProt P50750+Q96SW2); test: Protac activity at CRBN/CDK9 in human MOLT4 cells assessed as induction of CDK9 protein degradation after 6 hrs by Western blot analysis relative to control; type: cell-based
Target sequence in this assay (P50750 whole entry, looked up): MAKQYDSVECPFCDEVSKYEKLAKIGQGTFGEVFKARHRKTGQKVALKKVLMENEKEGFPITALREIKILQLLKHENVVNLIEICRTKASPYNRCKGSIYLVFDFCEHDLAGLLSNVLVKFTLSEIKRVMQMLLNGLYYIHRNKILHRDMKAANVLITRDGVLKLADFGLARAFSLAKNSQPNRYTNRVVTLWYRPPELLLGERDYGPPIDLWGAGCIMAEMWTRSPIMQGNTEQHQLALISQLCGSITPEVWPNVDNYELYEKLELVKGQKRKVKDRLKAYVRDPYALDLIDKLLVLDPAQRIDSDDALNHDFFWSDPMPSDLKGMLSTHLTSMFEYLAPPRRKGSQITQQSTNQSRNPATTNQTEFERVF
Target sequence in this assay (Q96SW2 whole entry, looked up): as the sequence (Q96SW2 whole entry partner, canonical isoform) above

[13] = biological target: T4, Protein cereblon/Cyclin-dependent kinase 9; test: Protac activity at CRBN/CDK9 in human MOLT4 cells assessed as induction of CDK9 protein degradation after 6 hrs by Western blot analysis; type: cell-based
Target sequence in this assay (P50750 whole entry): as the sequence (P50750 whole entry, looked up) above
Target sequence in this assay (Q96SW2 whole entry): as the sequence (Q96SW2 whole entry partner, canonical isoform) above

[14] = biological target: T5, BRD4/E3 ubiquitin-protein ligase Mdm2 (Homo sapiens, UniProt Q00987+O60885); test: Protac activity at BRD4/MDM2 in human HCT116 cells assessed as induction of BRD4 degradation at after 24 hrs by immunoblotting analysis; type: cell-based
T5 sequence (Q00987 whole entry, looked up, other chains not shown): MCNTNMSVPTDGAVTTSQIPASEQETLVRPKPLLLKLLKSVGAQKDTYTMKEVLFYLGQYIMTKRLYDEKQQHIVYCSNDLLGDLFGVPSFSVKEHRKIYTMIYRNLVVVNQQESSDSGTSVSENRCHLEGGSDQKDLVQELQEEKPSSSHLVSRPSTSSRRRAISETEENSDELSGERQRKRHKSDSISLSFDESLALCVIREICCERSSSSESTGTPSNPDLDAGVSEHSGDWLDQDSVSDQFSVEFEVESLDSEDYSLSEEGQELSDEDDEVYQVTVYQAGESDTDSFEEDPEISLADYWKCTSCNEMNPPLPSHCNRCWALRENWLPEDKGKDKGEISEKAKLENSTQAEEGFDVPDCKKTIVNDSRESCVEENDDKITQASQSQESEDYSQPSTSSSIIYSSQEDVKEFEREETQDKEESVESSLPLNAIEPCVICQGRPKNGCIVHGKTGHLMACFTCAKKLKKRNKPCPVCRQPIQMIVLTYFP

[15] = biological target: T5, BRD4/E3 ubiquitin-protein ligase Mdm2; test: Protac activity at BRD4/MDM2 in human HCT116 cells assessed as induction of BRD4 degradation at 100 nM after 24 hrs by immunoblotting analysis relative to control; type: cell-based
[16] = biological target: T6, von Hippel-Lindau disease tumor suppressor/Focal adhesion kinase 1 (Homo sapiens, UniProt Q05397+P40337); test: Protac activity at VHL/FAK in serum deprived human PC3 cells assessed as induction of FAK protein degradation in serum deprived human PC3 cells after 24 hrs by Western blot analysis
[17] = biological target: T6, von Hippel-Lindau disease tumor suppressor/Focal adhesion kinase 1; test: Protac activity at VHL/FAK in serum deprived human PC3 cells assessed as induction of FAK protein degradation in serum deprived human PC3 cells at 50 nM after 24 hrs by Western blot analysis relative to control
Target sequence in this assay (P40337 whole entry partner): as the sequence (P40337 whole entry, looked up, other chains not shown, canonical isoform) above
Target sequence in this assay (Q05397 2-1052 limits assumed): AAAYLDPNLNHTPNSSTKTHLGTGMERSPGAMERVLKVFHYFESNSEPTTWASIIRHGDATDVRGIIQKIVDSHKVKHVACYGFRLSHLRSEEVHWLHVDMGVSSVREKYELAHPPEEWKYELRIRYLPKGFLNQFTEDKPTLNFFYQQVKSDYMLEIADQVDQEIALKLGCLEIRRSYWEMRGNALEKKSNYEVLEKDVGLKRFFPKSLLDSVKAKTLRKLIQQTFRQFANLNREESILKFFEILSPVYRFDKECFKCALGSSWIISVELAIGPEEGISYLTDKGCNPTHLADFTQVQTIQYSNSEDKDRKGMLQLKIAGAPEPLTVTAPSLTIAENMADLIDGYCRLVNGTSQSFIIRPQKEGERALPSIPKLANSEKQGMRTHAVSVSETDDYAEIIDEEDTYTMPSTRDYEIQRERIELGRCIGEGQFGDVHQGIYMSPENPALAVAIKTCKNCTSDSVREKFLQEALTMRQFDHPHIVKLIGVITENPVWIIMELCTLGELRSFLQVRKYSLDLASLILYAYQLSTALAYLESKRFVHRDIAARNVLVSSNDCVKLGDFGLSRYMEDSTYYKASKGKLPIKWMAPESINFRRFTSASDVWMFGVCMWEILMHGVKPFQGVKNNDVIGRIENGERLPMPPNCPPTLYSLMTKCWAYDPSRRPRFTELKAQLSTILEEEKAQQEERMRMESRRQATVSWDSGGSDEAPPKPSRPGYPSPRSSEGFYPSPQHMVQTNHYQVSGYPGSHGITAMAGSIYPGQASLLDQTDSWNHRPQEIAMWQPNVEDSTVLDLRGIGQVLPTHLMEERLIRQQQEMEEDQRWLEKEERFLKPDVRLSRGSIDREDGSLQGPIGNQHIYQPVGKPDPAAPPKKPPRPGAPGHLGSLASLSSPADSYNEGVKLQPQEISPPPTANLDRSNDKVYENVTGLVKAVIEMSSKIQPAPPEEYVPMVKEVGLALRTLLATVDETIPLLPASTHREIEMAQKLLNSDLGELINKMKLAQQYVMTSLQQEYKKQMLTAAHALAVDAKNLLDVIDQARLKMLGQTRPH

T1 sequence (Q96SW2 whole entry, looked up, other chains not shown): as the sequence (Q96SW2 whole entry partner, canonical isoform) above

CN1C(=O)CCc2cc3cc(c21)OCCOC[C@H]1CN(C(=O)CCC(=O)NCCCOCCOCCOCCOCCOc2cccc4c2C(=O)N(C2CCC(=O)NC2=O)C4=O)CCN1c1ncc(Cl)c(n1)N3 (stereo partly drawn)
DC50 [1]: < 1000 nM | Emax [2]: 84%

CC/C(=C(\c1ccc(O)cc1)c1ccc(OCCN(C)C(=O)COCCOCCOCCOc2cccc(O[C@H]3C[C@@H](C(=O)N[C@@H]4CCCc5ccccc54)N(C(=O)[C@@H](NC(=O)[C@H](C)NC)C4CCCCC4)C3)c2)cc1)c1ccccc1
Emax [3]: 80% | DC50 [4]: < 3 nM

Nc1ncnc2c1c(-c1ccc(Oc3ccccc3)cc1)nn2C1CCN(CCOCCOCC(=O)Nc2ccc3c(c2)C(=O)N(C2CCC(=O)NC2=O)C3=O)CC1 (stereo not drawn)
Emax [5]: > 99%

CC(=O)N[C@H](C(=O)N1C[C@H](O)C[C@H]1C(=O)NCc1ccc(-c2scnc2C)cc1)C(C)(C)SCCCCCCNC(=O)C[C@@H]1N=C(c2ccc(Cl)cc2)c2c(sc(C)c2C)-n2c(C)nnc21
Emax [6]: > 90% | DC50 [7]: 10 to 100 nM

CC[C@H](C(=O)N1CCCC[C@H]1C(=O)O[C@H](CCc1ccc(OC)c(OC)c1)c1ccccc1OCC(=O)NCCCCCCOc1cccc2c1C(=O)N(C1CCC(=O)NC1=O)C2=O)c1cc(OC)c(OC)c(OC)c1 (stereo partly drawn)
DC50 [8]: < 100 nM | Emax (Homo sapiens): 82%

CN1C[C@H](Nc2cnn(C)c(=O)c2Br)C[C@H](c2ccc(C(=O)N(C)CCCN(C)c3ccc(CCCOc4cccc5c4C(=O)N(C4CCC(=O)NC4=O)C5=O)cc3)cc2)C1 (stereo partly drawn)
Emax [9]: 81% | Emax [10]: 97%

Cc1sc2c(c1C)C(c1ccc(Cl)cc1)=N[C@@H](CC(=O)NCCCCNC(=O)COc1cccc3c1C(=O)N(C1CCC(=O)NC1=O)C3=O)c1nnc(C)n1-2 (stereo partly drawn)
Emax [11]: 95%

CC(C)(C)c1cnc(CSc2cnc(NC(=O)C3CCN(CC(=O)NCCOCCOCCOCCNc4cccc5c4C(=O)N(C4CCC(=O)NC4=O)C5=O)CC3)s2)o1 (stereo not drawn)
Emax [12]: > 95% | DC50 [13]: < 250 nM

COc1cc(C(=O)NCCOCCOCCOCCNC(=O)C[C@@H]2N=C(c3ccc(Cl)cc3)c3c(sc(C)c3C)-n3c(C)nnc32)ccc1NC(=O)[C@@H]1N[C@@H](CC(C)(C)C)[C@](C#N)(c2ccc(Cl)cc2F)[C@H]1c1cccc(Cl)c1F
DC50 [14]: 32 nM | Emax [15]: 98%

Cc1ncsc1-c1ccc(CNC(=O)[C@@H]2C[C@@H](O)CN2C(=O)[C@@H](NC(=O)CCOCCOc2ccc(Nc3ncc(C(F)(F)F)c(NCc4cccc(N(C)S(C)(=O)=O)c4)n3)cc2)C(C)(C)C)cc1
DC50 [16]: 3 nM | Emax [17]: > 99%
